{
  "source": "patent US20220265692A1",
  "about": "“ORALLY-ADMINISTERED PHARMACEUTICAL COMPOSITION FOR ERADICATING ANTIBIOTIC-RESISTANT HELICOBACTER PYLORI, COMPRISING COMPLEX OF NON-ABSORBABLE ANTIBIOTIC AND CLAY MINERAL” (priority 2019, published 2022)",
  "key": {"[1]": {"tested_on": "Helicobacter pylori", "settings": "general statement; cited from earlier work"}, "[2]": {"tested_on": "Helicobacter pylori clinical strains", "test": "Evaluation of antibiotic resistant rate (in vitro MIC, 187 clinical strains)", "type": "cell-based", "experimental": "Complexes of antibiotics (amoxicillin, clarithromycin, metronidazole, levofloxacin, and tetracyclin) and smectite which have been actually used for Helicobacter eradication treatment in current clinical trials were prepared and in vitro MIC for non-absorbable antibiotic candidate groups gentamicin, netilmicin, tobramycin, amikacin) to be used as a novel therapeutic agent was measured, and MIC50 and MIC90 were confirmed. To this end, 187 cultured positive clinical strains obtained from 1,265 patient samples were used."}, "[3]": {"tested_on": "clarithromycin-resistant Helicobacter pylori", "test": "Eradication activity in vitro on clarithromycin-resistant strain (disk)", "type": "cell-based", "settings": "strain with MIC of CLR 48 mg/L, twice repeated tests", "from_the_text": "Clarithromycin-resistant Helicobacter pylori was applied (red) in a medium and then a sample was made in a disk form and placed on the medium to measure the eradication effect. At this time, it was meant that if red disappeared around the disk, there was the eradication effect."}},
  "note": "Read-outs that look alike come from different tables or passages of the source.",
  "data": [
    {"molecule": "CC1(C)S[C@@H]2[C@H](NC(=O)[C@H](N)c3ccc(O)cc3)C(=O)N2[C@H]1C(=O)O", "note": "[Amoxicilin, amoxicillin]", "values": [
      {"measurement": "resistance", "setting": "[1]", "value": "less than 10%"}
    ]},
    {"molecule": "NCC[C@H](O)C(=O)N[C@@H]1C[C@H](N)[C@@H](O[C@H]2O[C@H](CN)[C@@H](O)[C@H](O)[C@H]2O)[C@H](O)[C@H]1O[C@H]1O[C@H](CO)[C@@H](O)[C@H](N)[C@H]1O", "note": "[amikacin]", "values": [
      {"measurement": "resistant rate", "setting": "[2]; based on MIC 1 μg/ml", "value": 61.3, "unit": "%"}
    ]},
    {"molecule": "CC[C@H]1OC(=O)[C@H](C)[C@@H](O[C@H]2C[C@@](C)(OC)[C@@H](O)[C@H](C)O2)[C@H](C)[C@@H](O[C@@H]2O[C@H](C)C[C@H](N(C)C)[C@H]2O)[C@](C)(OC)C[C@@H](C)C(=O)[C@H](C)[C@@H](O)[C@]1(C)O", "note": "[clarithromycin]", "values": [
      {"measurement": "resistant rate", "setting": "[2]", "value": 29.8, "unit": "%"},
      {"measurement": "eradication effect on clarithromycin-resistant H. pylori (clear zone around disk)", "setting": "[3]", "value": "the clear zone was not shown"}
    ]},
    {"molecule": "C[C@H]1COc2c(N3CCN(C)CC3)c(F)cc3c(=O)c(C(=O)O)cn1c23", "note": "[levofloxacin]", "values": [
      {"measurement": "resistant rate", "setting": "[2]", "value": 37.2, "unit": "%"}
    ]},
    {"molecule": "CCN[C@@H]1C[C@H](N)[C@@H](O[C@H]2OC(CN)=CC[C@H]2N)[C@H](O)[C@H]1O[C@H]1OC[C@](C)(O)[C@H](NC)[C@H]1O", "note": "[netilmicin]", "values": [
      {"measurement": "resistant rate", "setting": "[2]; based on MIC 1 μg/ml", "value": 1.43, "unit": "%"}
    ]},
    {"molecule": "NC[C@H]1O[C@H](O[C@H]2[C@H](O)[C@@H](O[C@H]3O[C@H](CO)[C@@H](O)[C@H](N)[C@H]3O)[C@H](N)C[C@@H]2N)[C@H](N)C[C@@H]1O", "note": "[tobramycin]", "values": [
      {"measurement": "resistant rate", "setting": "[2]; based on MIC 1 μg/ml", "value": 36.3, "unit": "%"}
    ]},
    {"molecule": "gentamicin", "values": [
      {"measurement": "resistant rate", "setting": "[2]; based on MIC 1 μg/ml", "value": 2.78, "unit": "%"}
    ]}
  ]
}
